Structures can show the parent of a compound that is named as a salt.
Experiment: in vitro
Details: human, hek293t cells

CC(C)NC(=O)C(C#N)=Cc1ccc(Cl)cc1 [9-C09, 3-(4-chlorophenyl)-2-cyano-N-(propan-2-yl)prop-2-enamide]
viability at 48 h, 25 µM: 86.7%

C=CC(=O)N(Cc1sc(C)nc1C)[C@@H](C)[C@H]1COC(C)(C)O1 [1-B15, N-[(1S)-1-[(4S)-2,2-dimethyl-1,3-dioxolan-4-yl]ethyl]-N-[(2,4-dimethyl-1,3-thiazol-5-yl)methyl]prop-2-enamide]
viability at 48 h, 25 µM: 90%

CC(Cl)C(=O)NC1CCN(S(=O)(=O)c2cnn(C)c2)CC1 (stereo not drawn) [7-O05, 2-chloro-N-{1-[(1-methyl-1H-pyrazol-4-yl)sulfonyl]piperidin-4-yl}propanamide]
viability at 48 h, 25 µM: 113%

O=C(CCl)N(Cc1nc(C2CCCCCC2)no1)C1CC1 [7-B16, 2-chloro-N-[(3-cycloheptyl-1,2,4-oxadiazol-5-yl)methyl]-N-cyclopropylacetamide]
viability at 48 h, 25 µM: 0.667%

CC(=O)Nc1ccsc1C=C(C#N)C(=O)Nc1ccc(F)cc1 [9-F14, 2-cyano-3-(3-acetamidothiophen-2-yl)-N-(4-fluorophenyl)prop-2-enamide]
viability at 48 h, 25 µM: 98.4%

C=CC(=O)Nc1ccc(F)cc1C(C)(F)F [1-C16, N-[2-(1,1-difluoroethyl)-4-fluorophenyl]prop-2-enamide]
viability at 48 h, 25 µM: 137%

C=CC(=O)NCc1cn([C@@H]2COC[C@H]2OC)nn1 [1-J17, N-({1-[(3R,4S)-4-methoxyoxolan-3-yl]-1H-1,2,3-triazol-4-yl}methyl)prop-2-enamide]
viability at 48 h, 25 µM: 96.5%

Cc1ccc(NC(=O)C2(CNC(=O)C(C)Cl)CCCC2)cc1C (stereo not drawn) [7-J13, 1-[(2-chloropropanamido)methyl]-N-(3,4-dimethylphenyl)cyclopentane-1-carboxamide]
viability at 48 h, 25 µM: 108%

C=CC(=O)N1CCn2nccc21 [1-P16, 1-{1H,2H,3H-pyrazolo[1,5-a]imidazol-1-yl}prop-2-en-1-one]
viability at 48 h, 25 µM: 56.6%

C=CC(=O)N1CCCCC1c1nc2ccccc2o1 (stereo not drawn) [3-O20, 1-[2-(1,3-benzoxazol-2-yl)piperidin-1-yl]prop-2-en-1-one]
viability at 48 h, 25 µM: 82.3%

CCCCNC(=O)C(C#N)=Cc1cc(C)cc(C)c1 [9-C03, N-butyl-2-cyano-3-(3,5-dimethylphenyl)prop-2-enamide]
viability at 48 h, 25 µM: 122%

Cc1cccc(NC(=O)C(C)Cl)c1 (stereo not drawn) [5-P10, 2-chloro-N-(3-methylphenyl)propanamide]
viability at 48 h, 25 µM: 96.2%

COc1ccc2cc(C=C(C#N)C(=O)NCc3ccccc3)ccc2c1 [9-D07, N-benzyl-2-cyano-3-(6-methoxynaphthalen-2-yl)prop-2-enamide]
viability at 48 h, 25 µM: 108%

N#Cc1ccccc1N1C(=O)C=CC1=O [10-B13, 2-(2,5-dioxo-2,5-dihydro-1H-pyrrol-1-yl)benzonitrile]
viability at 48 h, 25 µM: 65.2%

COc1cc(CC2CN(C(=O)C(C)Cl)C2)cc(OC)c1 (stereo not drawn) [7-H07, 2-chloro-1-{3-[(3,5-dimethoxyphenyl)methyl]azetidin-1-yl}propan-1-one]
viability at 48 h, 25 µM: 97.3%

COc1ccc([N+](=O)[O-])cc1NC(=O)C(C)Cl (stereo not drawn) [5-N14, 2-chloro-N-(2-methoxy-5-nitrophenyl)propanamide]
viability at 48 h, 25 µM: 96.3%

COCC(NC(=O)C(C)Cl)c1cccc(C#N)c1 (stereo not drawn) [6-L19, 2-chloro-N-[1-(3-cyanophenyl)-2-methoxyethyl]propanamide]
viability at 48 h, 25 µM: 107%

CC(=O)Nc1ccc(C(=O)C(C)Cl)cc1 (stereo not drawn) [10-K06, N-[4-(2-chloropropanoyl)phenyl]acetamide]
viability at 48 h, 25 µM: 101%

C=CC(=O)N1CCC(C(=O)NCC(C)(C)C2(O)CCCC2)CC1 [2-D14, N-[2-(1-hydroxycyclopentyl)-2-methylpropyl]-1-(prop-2-enoyl)piperidine-4-carboxamide]
viability at 48 h, 25 µM: 76.9%

COc1ccc(-n2c(C)cc(C(=O)CCl)c2C)cc1 [10-I12, 2-chloro-1-[1-(4-methoxyphenyl)-2,5-dimethyl-1H-pyrrol-3-yl]ethan-1-one]
viability at 48 h, 25 µM: 0.472%

Cc1ccc(C=C(C#N)C(=O)Nc2ccccc2C(F)(F)F)cc1 [8-E16, 2-cyano-3-(4-methylphenyl)-N-[2-(trifluoromethyl)phenyl]prop-2-enamide]
viability at 48 h, 25 µM: 96.3%

C=CC(=O)N(C)CC(=O)N1CCC2(CC1)CC2c1nnc(C(C)C)o1 (stereo not drawn) [2-N22, N-methyl-N-(2-oxo-2-{1-[5-(propan-2-yl)-1,3,4-oxadiazol-2-yl]-6-azaspiro[2.5]octan-6-yl}ethyl)prop-2-enamide]
viability at 48 h, 25 µM: 84.6%

N#CC(=Cc1ccc(F)cc1)C(=O)NCCc1cccc(Cl)c1 [8-K06, N-[2-(3-chlorophenyl)ethyl]-2-cyano-3-(4-fluorophenyl)prop-2-enamide]
viability at 48 h, 25 µM: 49.6%

COc1c(Cl)cc(Cl)cc1C=C(C#N)C(N)=O [9-M13, 2-cyano-3-(3,5-dichloro-2-methoxyphenyl)prop-2-enamide]
viability at 48 h, 25 µM: 137%

Cc1ccc(NC(=O)C(C#N)=Cc2ccc(C(C)(C)C)cc2)cc1C [9-E04, 3-(4-tert-butylphenyl)-2-cyano-N-(3,4-dimethylphenyl)prop-2-enamide]
viability at 48 h, 25 µM: 104%

C=CC(=O)N(C)Cc1conc1CC [2-O15, N-[(3-ethyl-1,2-oxazol-4-yl)methyl]-N-methylprop-2-enamide]
viability at 48 h, 25 µM: 187%

CNC(=O)c1cc(C(=O)CCl)cn1C [10-G10, 4-(2-chloroacetyl)-N,1-dimethyl-1H-pyrrole-2-carboxamide]
viability at 48 h, 25 µM: 1.73%

N#CC(=Cc1ccccc1OC(F)F)C(=O)NC1CCCCC1 [8-H18, 2-cyano-N-cyclohexyl-3-[2-(difluoromethoxy)phenyl]prop-2-enamide]
viability at 48 h, 25 µM: 20.8%

CC(NC(=O)C(C#N)=Cc1ccccc1F)c1ccccc1 (stereo not drawn) [8-P16, 2-cyano-3-(2-fluorophenyl)-N-(1-phenylethyl)prop-2-enamide]
viability at 48 h, 25 µM: 61.8%

N#CC(=Cc1ccc(C#N)cc1)C(=O)Nc1ccccc1Cl [9-O17, N-(2-chlorophenyl)-2-cyano-3-(4-cyanophenyl)prop-2-enamide]
viability at 48 h, 25 µM: 131%

C=CC(=O)N1CCC(C(=O)NC2CC2(C)C)CC1 (stereo not drawn) [3-C07, N-(2,2-dimethylcyclopropyl)-1-(prop-2-enoyl)piperidine-4-carboxamide]
viability at 48 h, 25 µM: 30.9%

Cc1cc(CN(Cc2ccn(C)n2)C(=O)CCl)ccc1F [5-G14, 2-chloro-N-[(4-fluoro-3-methylphenyl)methyl]-N-[(1-methyl-1H-pyrazol-3-yl)methyl]acetamide]
viability at 48 h, 25 µM: 0.658%

O=C(O)c1csc(C(=O)CCl)c1 [10-E22, 5-(2-chloroacetyl)thiophene-3-carboxylic acid]
viability at 48 h, 25 µM: 91.8%

C=CC(=O)NCc1c(C)nc2ccccn12 [1-C08, N-({2-methylimidazo[1,2-a]pyridin-3-yl}methyl)prop-2-enamide]
viability at 48 h, 25 µM: 82.8%

COc1ccccc1NC(=O)C(C#N)=Cc1ccc(C)s1 [8-B15, 2-cyano-N-(2-methoxyphenyl)-3-(5-methylthiophen-2-yl)prop-2-enamide]
viability at 48 h, 25 µM: 103%

CN(Cc1ccc(N(C)C)cc1)C(=O)CCl [5-F06, 2-chloro-N-{[4-(dimethylamino)phenyl]methyl}-N-methylacetamide hydrochloride]
viability at 48 h, 25 µM: 0.499%

CC(CC#N)Sc1ccccc1NC(=O)CCl (stereo not drawn) [5-F14, 2-chloro-N-{2-[(1-cyanopropan-2-yl)sulfanyl]phenyl}acetamide]
viability at 48 h, 25 µM: 1.02%

N#CC(=Cc1ccc(O)cc1)C(=O)NCCc1c(F)cccc1F [9-I16, 2-cyano-N-[2-(2,6-difluorophenyl)ethyl]-3-(4-hydroxyphenyl)prop-2-enamide]
viability at 48 h, 25 µM: 121%

COc1ccc(C=C(C#N)C(=O)Nc2ccc(C)c(C)c2)cc1 [8-I05, 2-cyano-N-(3,4-dimethylphenyl)-3-(4-methoxyphenyl)prop-2-enamide]
viability at 48 h, 25 µM: 87.4%

C=CC(=O)N(C)Cc1cc2sccc2n1C [2-B19, N-methyl-N-({4-methyl-4H-thieno[3,2-b]pyrrol-5-yl}methyl)prop-2-enamide]
viability at 48 h, 25 µM: 75.1%

C=CC(=O)Nc1cn(CC(F)(F)F)nc1C [3-D06, N-[3-methyl-1-(2,2,2-trifluoroethyl)-1H-pyrazol-4-yl]prop-2-enamide]
viability at 48 h, 25 µM: 55.3%

COc1ccc(C=C(C#N)C(=O)Nc2cccc(C(F)(F)F)c2)cc1 [8-A03, 2-cyano-3-(4-methoxyphenyl)-N-[3-(trifluoromethyl)phenyl]prop-2-enamide]
viability at 48 h, 25 µM: 72.2%

COc1ccc(NC(=O)C(C)Cl)c([N+](=O)[O-])c1 (stereo not drawn) [6-B08, 2-chloro-N-(4-methoxy-2-nitrophenyl)propanamide]
viability at 48 h, 25 µM: 90.1%

C=CC(=O)N1CCC(C(=O)N2CCC(C(=O)NCC(C)C)CC2)CC1 [3-C17, N-(2-methylpropyl)-1-[1-(prop-2-enoyl)piperidine-4-carbonyl]piperidine-4-carboxamide]
viability at 48 h, 25 µM: 34.6%

CCN1C(=O)C(=Cc2ccc(-c3ccc(F)cc3)o2)C(C)=C(C#N)C1=O [9-P09, 1-ethyl-5-{[5-(4-fluorophenyl)furan-2-yl]methylidene}-4-methyl-2,6-dioxo-1,2,5,6-tetrahydropyridine-3-carbonitrile]
viability at 48 h, 25 µM: 127%

O=C(CCl)NC1CCN(C(=O)COc2ccccc2)C1 (stereo not drawn) [7-L03, 2-chloro-N-[1-(2-phenoxyacetyl)pyrrolidin-3-yl]acetamide]
viability at 48 h, 25 µM: 0.757%

CC(Cl)C(=O)NCc1nnc2n1-c1ccccc1CC2 (stereo not drawn) [6-N14, 2-chloro-N-({4H,5H-[1,2,4]triazolo[4,3-a]quinolin-1-yl}methyl)propanamide]
viability at 48 h, 25 µM: 110%

CCc1ccccc1NC(=O)CN(C)C(=O)C(C)Cl (stereo not drawn) [4-P05, 2-chloro-N-{[(2-ethylphenyl)carbamoyl]methyl}-N-methylpropanamide]
viability at 48 h, 25 µM: 81%

N#CC(=Cc1ccco1)C(=O)NCc1nc(-c2ccncc2)cs1 [9-B20, 2-cyano-3-(furan-2-yl)-N-{[4-(pyridin-4-yl)-1,3-thiazol-2-yl]methyl}prop-2-enamide]
viability at 48 h, 25 µM: 109%

C=CC(=O)N1CCC(C(=O)NCC(O)c2c(F)cccc2F)CC1 (stereo not drawn) [2-P14, N-[2-(2,6-difluorophenyl)-2-hydroxyethyl]-1-(prop-2-enoyl)piperidine-4-carboxamide]
viability at 48 h, 25 µM: 102%

C=CC(=O)NC1CCN(Cc2ccccc2)C1 (stereo not drawn) [1-N15, N-(1-benzylpyrrolidin-3-yl)prop-2-enamide]
viability at 48 h, 25 µM: 103%

Reference: PMC11995724, “Antibiotic target discovery by integrated phenotypic and activity-based profiling of electrophilic fragments” (Cell chemical biology, 2025)
